From US20230113037A1 (Bayer Aktiengesellschaft, priority 2019, published 2023)
“And” between values parts separate entries of the source, which are not always exact repeats. Identical values can stand only once.

target: T1, AHR (Homo sapiens, UniProt P35869); assay: In vitro assay 1: antagonism in human cell line (AHR transactivation, firefly luciferase reporter, kynurenic acid prestimulated); assay type: cell-based; conditions: AHR Antagonism Human IC50 [M]
T1 construct: U87 MG glioblastoma cells (ATCC #HTB-14) endogenously expressing AHR; endogenous in cells; host or cells: U87 MG glioblastoma cells (ATCC #HTB-14)
T1 sequence (P35869 11-848): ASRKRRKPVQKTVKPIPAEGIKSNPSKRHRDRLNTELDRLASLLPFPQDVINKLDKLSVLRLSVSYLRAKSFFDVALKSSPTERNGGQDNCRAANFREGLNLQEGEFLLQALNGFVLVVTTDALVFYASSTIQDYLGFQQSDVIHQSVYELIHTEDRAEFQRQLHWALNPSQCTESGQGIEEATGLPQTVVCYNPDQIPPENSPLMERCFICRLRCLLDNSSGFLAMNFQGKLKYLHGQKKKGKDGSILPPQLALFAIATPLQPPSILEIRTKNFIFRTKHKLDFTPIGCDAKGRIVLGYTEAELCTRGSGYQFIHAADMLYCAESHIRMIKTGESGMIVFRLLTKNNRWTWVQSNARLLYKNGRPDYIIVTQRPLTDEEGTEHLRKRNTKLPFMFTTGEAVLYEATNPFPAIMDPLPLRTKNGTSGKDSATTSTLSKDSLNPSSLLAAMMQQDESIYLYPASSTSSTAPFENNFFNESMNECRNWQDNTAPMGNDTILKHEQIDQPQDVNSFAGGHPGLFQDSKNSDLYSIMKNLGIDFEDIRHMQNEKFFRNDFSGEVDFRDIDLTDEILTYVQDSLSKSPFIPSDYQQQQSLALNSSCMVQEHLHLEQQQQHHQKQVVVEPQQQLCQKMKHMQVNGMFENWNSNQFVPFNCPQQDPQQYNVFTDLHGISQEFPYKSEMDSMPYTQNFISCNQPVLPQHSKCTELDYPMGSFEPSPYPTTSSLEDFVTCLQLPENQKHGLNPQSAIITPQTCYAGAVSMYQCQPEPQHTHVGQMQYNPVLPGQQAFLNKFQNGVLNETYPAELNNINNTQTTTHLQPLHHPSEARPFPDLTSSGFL
Method: Examples were tested in selected biological assays one or more times. When tested more than once, data are reported as either average values or as median values, wherein • the average value, also referred to as the arithmetic mean value, represents the sum of the values obtained divided by the number of times tested, and • the median value represents the middle number of the group of values when ranked in ascending or descending order. If the number of values in the data set is odd, the median is the middle value. If the number of values in the data set is even, the median is the arithmetic mean of the two middle values.
Transactivation assays were carried out in U87 MG glioblastoma cells (ATCC #HTB-14) endogenously expressing AHR. In addition the cells were stably transfected with an AHR inducible firefly luciferase reporter gene construct that carried AHR-binding sites (DRE) in its promoter and a renilla reporter gene construct with constitutively active promoter. Kynurenic acid is an endogenous AHR activating ligand and was used to prestimulate test cells prior to testing the antagonistic properties of compounds.
As positive inhibition control cells supplemented with 150 μM kynurenic acid were incubated in presence of 5 μM Staurosporin. Normalization was done by positive and negative controls.
Firefly luciferase and Renilla activity was determined by the DualGlo Luciferase Assay System (Promega, #2920). Renilla activity was used to assess toxic effects of compounds.

| IC50 | SMILES |
| --- | --- |
| > 2e-05 M | Cn1cc(-c2nc3c4ccccc4nc(NC4CCNC4=O)n3n2)cn1 (single isomer, unassigned) [Example 19, 3-{[2-(1-methyl-1H-pyrazol-4-yl)[1,2,4]triazolo[1,5-c]quinazolin-5-yl]amino}pyrrolidin-2-one] |
| > 4e-05 M | Cn1cc(-c2nc3c4ccccc4nc(NC4CNCCNC4=O)n3n2)cn1 (single isomer, unassigned) [Example 24, 6-{[2-(1-methyl-1H-pyrazol-4-yl)[1,2,4]triazolo[1,5-c]quinazolin-5-yl]amino}-1,4-diazepan-5-one] |
| 3.4e-10 M | O=C1NCCCC[C@H]1Nc1nc2ccccc2c2nc(-c3ccccc3)nn12 [Example 5, (3R)-3-[(2-phenyl[1,2,4]triazolo[1,5-c]quinazolin-5-yl)amino]azepan-2-one] |
| 1.62e-10 M | O=C1NCCCC[C@H]1Nc1nc2ccccc2c2nc(-c3ccc(F)cc3)nn12 [Example 74, (3R)-3-{[2-(4-fluorophenyl)[1,2,4]triazolo[1,5-c]quinazolin-5-yl]amino}azepan-2-one] |
| 2.53e-08 M | COc1cccc(-c2nc3c4ccccc4nc(NC4CCN(C)C4=O)n3n2)c1 (stereo not drawn) [Example 80, 3-{[2-(3-methoxyphenyl)[1,2,4]triazolo[1,5-c]quinazolin-5-yl]amino}-1-methylpyrrolidin-2-one] |
| 3.17e-08 M | COc1cccc(-c2nc3c4ccc(C)cc4nc(N[C@@H]4CCCCNC4=O)n3n2)c1 [Example 145, (3R)-3-{[2-(3-methoxyphenyl)-8-methyl[1,2,4]triazolo[1,5-c]quinazolin-5-yl]amino}azepan-2-one] |
| 7.53e-07 M | Cc1ccc2c(c1)nc(N[C@@H]1CCCCNC1=O)n1nc(-c3cnn(C)c3)nc21 [Example 147, (3R)-3-{[8-methyl-2-(1-methyl-1H-pyrazol-4-yl)[1,2,4]triazolo[1,5-c]quinazolin-5-yl]amino}azepan-2-one] |
| 1.81e-07 M | COc1cccc(-c2nc3c4ccc(F)cc4nc(N[C@H]4CCNC4=O)n3n2)c1 [Example 149, (3S)-3-{[8-fluoro-2-(3-methoxyphenyl)[1,2,4]triazolo[1,5-c]quinazolin-5-yl]amino}pyrrolidin-2-one] |
| 2.14e-08 M | O=C1NCCCC[C@H]1Nc1nc2cccc(Br)c2c2nc(-c3cccc(F)c3)nn12 [Example 163, (3R)-3-{[10-bromo-2-(3-fluorophenyl)[1,2,4]triazolo[1,5-c]quinazolin-5-yl]amino}azepan-2-one] |
| 6.39e-09 M | O=C1NCCCC[C@H]1Nc1nc2cccc(Cl)c2c2nc(-c3cccc(F)c3)nn12 [Example 167, (3R)-3-{[10-chloro-2-(3-fluorophenyl)[1,2,4]triazolo[1,5-c]quinazolin-5-yl]amino}azepan-2-one] |
| 3.56e-10 M | O=C1NCCCC[C@H]1Nc1nc2ccccc2c2nc(-c3ccc(F)cc3F)nn12 [Example 201, (3R)-3-{[2-(2,4-difluorophenyl)[1,2,4]triazolo[1,5-c]quinazolin-5-yl]amino}azepan-2-one] |
| 1.97e-06 M | Cn1cc(-c2nc3c4ccc(Br)cc4nc(N[C@@H]4CCCCNC4=O)n3n2)cn1 [Example 230, (3R)-3-{[8-bromo-2-(1-methyl-1H-pyrazol-4-yl)[1,2,4]triazolo[1,5-c]quinazolin-5-yl]amino}azepan-2-one] |
| 3.04e-07 M | COc1ccc(-c2nc3c4ccc(C5CC5)cc4nc(N[C@@H]4CCCCNC4=O)n3n2)cc1 [Example 251, (3R)-3-{[8-Cyclopropyl-2-(4-methoxyphenyl)[1,2,4]triazolo[1,5-c]quinazolin-5-yl]amino}azepan-2-one] |
| 2.77e-06 M | COc1ccc(-c2nc3c4ccc(OC)cc4nc(N[C@@H]4CNCCNC4=O)n3n2)cc1 [Example 272, (6R)-6-{[8-methoxy-2-(4-methoxyphenyl)[1,2,4]triazolo[1,5-c]quinazolin-5-yl]amino}-1,4-diazepan-5-one] |
| 9.72e-10 M | Cc1cc(-c2nc3c4ccccc4nc(N[C@@H]4CCCCNC4=O)n3n2)cs1 [Example 352, (3R)-3-{[2-(5-methylthiophen-3-yl)[1,2,4]triazolo[1,5-c]quinazolin-5-yl]amino}azepan-2-one] |
| 3.22e-07 M | Cn1cc(-c2nc3c4cccc(C5(C(F)(F)F)CC5)c4nc(N[C@@H]4CNCCNC4=O)n3n2)cn1 [Example 430] |
| 1.17e-07 M | CN(C)c1ccccc1-c1nc2c3ccccc3nc(N[C@@H]3CCCCNC3=O)n2n1 [Example 455, (3R)-3-({2-[2-(dimethylamino)phenyl][1,2,4]triazolo[1,5-c]quinazolin-5-yl}amino)azepan-2-one] |

The next lines start with the molecule.

| SMILES | IC50 |
| --- | --- |
| CCNC(=O)C(CC)Nc1nc2ccccc2c2nc(-c3cccc(OC(F)(F)F)c3)nn12 (single isomer, unassigned) [Example 320, N-ethyl-2-({2-[3-(trifluoromethoxy)phenyl][1,2,4]triazolo[1,5-c]quinazolin-5-yl}amino)butanamide] | 1.21e-06 M |
| O=C1NCCCC[C@H]1Nc1nc2ccccc2c2nc(-c3ccccc3Cl)nn12 [Example 58, (3R)-3-{[2-(2-chlorophenyl)[1,2,4]triazolo[1,5-c]quinazolin-5-yl]amino}azepan-2-one] | 1.05e-08 M |
| COc1cccc(-c2nc3c4ccccc4nc(NC4(C(N)=O)CCCC4)n3n2)c1 [Example 99, 1-{[2-(3-methoxyphenyl)[1,2,4]triazolo[1,5-c]quinazolin-5-yl]amino}cyclopentane-1-carboxamide] | 6.78e-08 M |
| O=C1NCCCC[C@H]1Nc1nc2cccc(C(F)(F)F)c2c2nc(-c3cccc(F)c3)nn12 [Example 171, (3R)-3-{[2-(3-fluorophenyl)-10-(trifluoromethyl)[1,2,4]triazolo[1,5-c]quinazolin-5-yl]amino}azepan-2-one] | 6.2e-08 M |
| Cn1cc(-c2nc3c4c(C5CC5)cccc4nc(N[C@@H]4CCCCNC4=O)n3n2)cn1 [Example 177, (3R)-3-{[10-cyclopropyl-2-(1-methyl-1H-pyrazol-4-yl)[1,2,4]triazolo[1,5-c]quinazolin-5-yl]amino}azepan-2-one] | 7.35e-07 M |
| CCOc1ccccc1-c1nc2c3ccccc3nc(N[C@@H]3CCCCNC3=O)n2n1 [Example 198, (3R)-3-{[2-(2-ethoxyphenyl)[1,2,4]triazolo[1,5-c]quinazolin-5-yl]amino}azepan-2-one] | 1.82e-06 M |
| Cn1cc(-c2nc3c4ccc(C(F)(F)F)cc4nc(N[C@@H]4CCCCNC4=O)n3n2)cn1 [Example 227, (3R)-3-{[2-(1-methyl-1H-pyrazol-4-yl)-8-(trifluoromethyl)[1,2,4]triazolo[1,5-c]quinazolin-5-yl]amino}azepan-2-one] | 2.65e-06 M |
| CCCCNC(=O)CNc1nc2ccccc2c2nc(-c3cccc(OC(F)(F)F)c3)nn12 [Example 317, N-butyl-N^2-{2-[3-(trifluoromethoxy)phenyl][1,2,4]triazolo[1,5-c]quinazolin-5-yl}glycinamide] | 1.45e-07 M |
| CCCCC(Nc1nc2ccccc2c2nc(-c3cccc(OC(F)(F)F)c3)nn12)C(N)=O (stereo not drawn) [Example 323] | > 2e-05 M and 1.32e-05 M and 8.31e-06 M |
| Cc1sccc1-c1nc2c3ccccc3nc(N[C@@H]3CCCCNC3=O)n2n1 [Example 346, (3R)-3-{[2-(2-methylthiophen-3-yl)[1,2,4]triazolo[1,5-c]quinazolin-5-yl]amino}azepan-2-one] | 2.24e-09 M |
| CCC[C@@H](Nc1nc2ccccc2c2nc(-c3csc(C)c3)nn12)C(=O)NC [Example 357, N-methyl-N^2-[2-(5-methylthiophen-3-yl)[1,2,4]triazolo[1,5-c]quinazolin-5-yl]-D-norvalinamide] | 1.35e-09 M |
| CC[C@@H](Nc1nc2ccccc2c2nc(-c3cccc(Br)c3)nn12)C(N)=O [Example 445, (2R)-2-{[2-(3-bromophenyl)[1,2,4]triazolo[1,5-c]quinazolin-5-yl]amino}butanamide] | 9.27e-08 M |
| CN1CC[C@@H](Nc2nc3ccccc3c3nc(-c4ccccc4OC(F)(F)F)nn23)C1=O [Example 460, (3R)-1-methyl-3-({2-[2-(trifluoromethoxy)phenyl][1,2,4]triazolo[1,5-c]quinazolin-5-yl}amino)pyrrolidin-2-one] | 7.67e-08 M |
